Blank lines part the entries; values can stand above or below the compound they belong to.
What was measured:
A2780 = test: cells; settings: Homo sapiens, A2780, 72 h
[1] = target: Nicotinamide phosphoribosyltransferase (Mus musculus, UniProt Q99KQ4); test: Inhibition of N-terminal His-tagged mouse NAMPT transformed in Escherichia coli Rosetta cells
HCT-116 [2] = test: cells; settings: Homo sapiens, HCT-116, 48 h
[3] = target: Nicotinamide phosphoribosyltransferase (Homo sapiens, UniProt P43490); test: Inhibition of NAMPT (unknown origin) using NAM and PRPP as substrates incubated for 2 hrs in presence of ATP by fluorimetric plate reader assay
Nicotinamide phosphoribosyltransferase (Homo sapiens, UniProt P43490), sequence (P43490 whole entry): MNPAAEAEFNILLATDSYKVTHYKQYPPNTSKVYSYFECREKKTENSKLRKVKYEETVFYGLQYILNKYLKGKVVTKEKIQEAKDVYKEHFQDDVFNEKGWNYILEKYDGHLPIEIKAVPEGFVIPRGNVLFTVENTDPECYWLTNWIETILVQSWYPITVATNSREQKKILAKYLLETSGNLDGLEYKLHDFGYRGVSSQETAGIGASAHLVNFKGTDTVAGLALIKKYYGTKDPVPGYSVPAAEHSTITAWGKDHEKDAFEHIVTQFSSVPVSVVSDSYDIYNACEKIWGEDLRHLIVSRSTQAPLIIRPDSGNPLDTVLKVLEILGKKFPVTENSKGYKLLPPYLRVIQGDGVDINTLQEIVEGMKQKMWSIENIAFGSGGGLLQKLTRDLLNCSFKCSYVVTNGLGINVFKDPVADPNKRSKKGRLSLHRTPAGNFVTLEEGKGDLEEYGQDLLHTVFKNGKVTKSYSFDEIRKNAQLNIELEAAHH

[4] = Cmax in Sprague-Dawley rat plasma at 60 mg/kg, ip measured up to 48 hrs by LC-MS/MS analysis; format: ADME, organism-based
[5] = Cmax in ICR mouse at 10 mg/kg, iv by LC-MS/MS analysis; format: ADME, organism-based; settings: in vivo
HCT-116 [6] = test: Antitumor activity against human HCT-116 cells assessed as decrease in intracellular NAD level at 30 uM measured after 12 to 24 hrs by absorbance based assay; format: functional; parameters: scale not given: the % may be the effect or the level left; settings: time 12-24 hrs

Nicotinamide phosphoribosyltransferase (Mus musculus, UniProt Q99KQ4), sequence (Q99KQ4 whole entry): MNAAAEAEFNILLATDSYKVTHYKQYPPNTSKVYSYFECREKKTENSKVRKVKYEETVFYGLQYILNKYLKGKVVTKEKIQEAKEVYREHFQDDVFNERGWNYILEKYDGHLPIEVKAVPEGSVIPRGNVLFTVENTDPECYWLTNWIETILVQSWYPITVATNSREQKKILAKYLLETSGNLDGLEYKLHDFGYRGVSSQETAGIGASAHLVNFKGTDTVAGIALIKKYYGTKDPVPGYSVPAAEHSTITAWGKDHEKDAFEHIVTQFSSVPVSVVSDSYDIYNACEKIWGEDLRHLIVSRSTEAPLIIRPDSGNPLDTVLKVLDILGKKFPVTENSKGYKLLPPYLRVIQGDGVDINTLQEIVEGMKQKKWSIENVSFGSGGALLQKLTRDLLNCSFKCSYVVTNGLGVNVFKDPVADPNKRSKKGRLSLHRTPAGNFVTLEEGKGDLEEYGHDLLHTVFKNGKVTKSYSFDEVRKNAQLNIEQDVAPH

Compound: O=S(=O)(c1ccc(NC(=S)NCc2ccncc2)cc1)N1CCCCC1
IC50 (A2780): > 10 nM

Compound: CCOC(=O)c1ccc(NC(=O)NCc2ccncc2)cc1
IC50 (A2780): 320 nM

Compound: CCOC(=O)c1ccc(NC(=S)NCc2ccncc2)cc1
IC50 (A2780): 1000 nM

Compound: CCN(CC)S(=O)(=O)c1ccc(NC(=O)NCc2ccncc2)cc1
IC50 (A2780): 364 nM

Compound: Cn1nccc1-c1nc2ccc(NC(=O)NCc3ccncc3)cn2n1
IC50 (A2780): 160 nM

IC50 [1]: 1490 nM
Compound: CCN(CC)C(=O)c1noc2cc(NC(=O)NCc3cnco3)ccc12

Compound: C#CCN(Cc1cc2c(=O)n(C)c(CN3CCN(CCN)CC3)nc2cc1Cl)c1ccc(C(=O)NCc2cccnc2)cc1
IC50 (HCT-116 [2]): 0.68 nM

IC50 [3]: 279 nM
Compound: O=C(NCc1ccncc1)Nc1ccc(S(=O)(=O)N2C[C@H]3CC[C@@H](C2)O3)cc1

Cmax [4]: 6.7 µM | Cmax [5]: 14 µM
Compound: O=C(/C=C/c1cccnc1)NCCCCC1CCN(C(=O)c2ccccc2)CC1 [DAPORINAD]

Compound: Nc1cc(F)ccc1NC(=O)c1ccc(CNC(=O)/C=C/c2cccnc2)cc1 [TUCIDINOSTAT]
Activity (HCT-116 [6]): 50%

Source: ChEMBL document CHEMBL5543134, “Channeling Nicotinamide Phosphoribosyltransferase (NAMPT) to Address Life and Death” (J Med Chem, 2024)
